As a reminder, the viability is a read-out of living cells in per cent, often relative to untreated cells.

A short description of the data set: in vitro. The conditions noted are these: human, hela cells, % viability.
For the molecule `CC(C)N1CC[C@@H]2[C@H]1C(=O)NC[C@H](CCC(=O)NCc1ccccc1)N2C` [CBK289027], the viability at 28.5 h, 10 µM is 91.7%.
With `CN1CC[C@@H]2[C@H]1C(=O)NC[C@H](CCC(=O)NCc1cccs1)N2C` [CBK289028] the figure was 115%; with `CN1[C@@H](CCC(=O)Nc2ccccc2)CNC(=O)[C@@H]2[C@H]1CCN2C1CCOCC1` [CBK289029], 108%; with `CN1[C@@H](CCC(=O)N2CCOCC2)CNC(=O)[C@@H]2[C@H]1CCN2C1CCCCC1` [CBK289032], 88.9%.
Next, `C#CCNC(=O)CC[C@H]1CNC(=O)[C@@H]2[C@@H](CCN2Cc2ccc(C)cc2)N1C` [CBK289036]: 101%; `COC[C@H]1CCCN1C(=O)CC[C@H]1CNC(=O)[C@@H]2[C@@H](CCN2C(C)C)N1C` [CBK289038]: 103%.
With `COC[C@H]1CCCN1C(=O)CC[C@H]1CNC(=O)[C@@H]2[C@@H](CCN2C2CCCCC2)N1C` [CBK289039] the figure was 89.7%; with `CN1CCC(N[C@H]2CC(C)(C)[C@@H]3C[C@@](C)(O)CC[C@]23CCC(=O)N2CCOCC2)CC1` [CBK289040], 97.2%; with `CC(=O)N1CCN(C(=O)C[C@@H]2C[C@@H](C(C)C)[C@H](CNC(=O)c3cccnc3)C=C2C)CC1` [CBK289046], 102%.
With `CC1=C[C@@H](CNS(=O)(=O)c2ccccc2)[C@H](C(C)C)C[C@H]1CC(=O)N1CCOCC1` [CBK289049], the viability at 28.5 h, 10 µM worked out at 79.7%.
With `CC1=C[C@@H](CNC(=O)c2ccncc2)[C@H](C(C)C)C[C@H]1CC(=O)N1CCOCC1` [CBK289052] the figure was 80.2%.
With `CC1=C[C@@H](CNC(=O)c2cccnc2)[C@H](C(C)C)C[C@H]1CC(=O)N1CCOCC1` [CBK289053] the figure was 92.4%; with `CC1=C[C@@H](CNS(=O)(=O)c2ccccc2)[C@H](C(C)C)C[C@H]1CC(=O)N1CCCC1` [CBK289054], 122%.
Next, `CC1=C[C@@H](CNC(=O)c2cccnc2)[C@H](C(C)C)C[C@H]1CC(=O)N1CCCC1` [CBK289055]: 87.7%; `CN1C(=O)COC[C@@H]1[C@H](O)c1ccc(NC(=O)C2CC2)cc1` [CBK289057]: 83.1%.
For the molecule `COCC(=O)Nc1ccc([C@@H](O)[C@H]2COCC(=O)N2C)cc1` [CBK289058], the viability at 28.5 h, 10 µM was 106%.
Next, `O=C(Nc1ccc([C@@H](O)[C@H]2COCC(=O)N2Cc2ccccc2F)cc1)c1cnccn1` [CBK289060]: 83.2%; `O=C(Nc1ccc([C@@H](O)[C@H]2COCC(=O)N2Cc2ccc(F)cc2)cc1)c1cccnc1` [CBK289062]: 93.3%; `CC(C)NC(=O)N1CCC[C@@H](O)[C@H](NC(=O)c2ccc(OCc3ccccc3)cc2)C1` [CBK289063]: 106%.
Next, `COc1ccc(C(=O)N[C@@H]2CN(Cc3ccc(CO)o3)CCC[C@H]2O)cc1` [CBK289067]: 89.8%; `CCNC(=O)N1CCC[C@@H](O)[C@H](NC(=O)c2ccc(OCc3c(C)noc3C)cc2)C1` [CBK289068]: 84.2%.
With `Cc1noc(C)c1COc1ccc(C(=O)N[C@@H]2CN(C(=O)NC(C)C)CCC[C@H]2O)cc1` [CBK289069] the figure was 93.1%; with `O=C(N[C@@H]1CNCCC[C@H]1O)c1ccc(OCCN2CCCC2)cc1` [CBK289070], 101%; with `COCCOc1ccc(C(=O)N[C@@H]2CNCCC[C@H]2O)cc1` [CBK289071], 94.6%.
`CC(=O)Nc1ccc2n(c1=O)C[C@H]1C[C@@H]2CN(C(=O)COc2ccccc2)C1` [CBK289074]: the viability at 28.5 h, 10 µM worked out at 89%.
With `COCCC(=O)N1C[C@@H]2C[C@H](C1)c1ccc(NC(=O)Nc3cccc(F)c3)c(=O)n1C2` [CBK289075] the figure was 84.6%; with `O=C(Nc1ccc2n(c1=O)C[C@@H]1CNC[C@H]2C1)c1ccc(F)cc1` [CBK289078], 98.4%; with `O=C(COc1ccccc1)Nc1ccc2n(c1=O)C[C@H]1C[C@@H]2CN(C(=O)c2ccccc2)C1` [CBK289079], 76.6%.
With `O=C(NCc1ccco1)[C@H]1CN2CCC1C[C@@H]2Cn1cc(CO)nn1` (stereo partly drawn) [CBK289080] the figure was 113%; with `CC(C)(C)c1cn(C[C@H]2CC3CCN2C[C@@H]3C(=O)NCc2ccc(F)cc2)nn1` (stereo partly drawn) [CBK289081], 102%; with `O=C(NC1CCCCC1)[C@H]1CN2CCC1C[C@@H]2Cn1cc(CO)nn1` (stereo partly drawn) [CBK289086], 102%.
Turning to `CNCc1cn(C[C@H]2CC3CCN2C[C@@H]3C(=O)N2CCCC2)nn1` (stereo partly drawn) [CBK289087], the viability at 28.5 h, 10 µM was 104%.
On to `Nc1cccc(-c2cn(C[C@H]3CC4CCN3C[C@@H]4C(=O)NCc3cccnc3)nn2)c1` (stereo partly drawn) [CBK289088], for which the viability at 28.5 h, 10 µM is 84.3%.
Next, `CN(C)C(=O)[C@H]1CN2CCC1C[C@@H]2Cn1cc(CCO)nn1` (stereo partly drawn) [CBK289089]: 89.9%.
With `CC(C)NC(=O)[C@H]1CN2CCC1C[C@@H]2Cn1cc(C2(O)CCCC2)nn1` (stereo partly drawn) [CBK289090] the figure was 103%; with `O=C(Nc1ccccc1)[C@H]1CN2CCC1C[C@@H]2Cn1cc(C2(O)CCCC2)nn1` (stereo partly drawn) [CBK289091], 103%.
For the molecule `O=C(NC1CC1)[C@H]1CN2CCC1C[C@@H]2Cn1cc(C2(O)CCCC2)nn1` (stereo partly drawn) [CBK289092], the viability at 28.5 h, 10 µM is 82.1%.
Next, `Cn1nc(-c2ccccc2)cc1[C@H]1CN2CC[C@H]1C[C@@H]2CNC(=O)N1CCOCC1` [CBK289094]: 113%; `Cn1nc(-c2ccccc2)cc1[C@H]1CN2CC[C@H]1C[C@@H]2CNS(C)(=O)=O` [CBK289096]: 99.2%.
With `CC(C)NC(=O)NC[C@H]1C[C@@H]2CCN1C[C@@H]2c1cc(-c2ccccc2)nn1C` [CBK289097] the figure was 84.5%; with `Cn1nc(-c2cccs2)cc1[C@H]1CN2CC[C@H]1C[C@@H]2CNC(=O)c1ccco1` [CBK289100], 86.6%; with `CCCS(=O)(=O)NC[C@H]1C[C@@H]2CCN1C[C@@H]2c1cc(-c2cccs2)nn1C` [CBK289101], 98.4%.
Next, `CC(C)NC(=O)NC[C@H]1C[C@@H]2CCN1C[C@@H]2c1cc(C2CCCCC2)nn1C` [CBK289107]: 90.8%; `Cn1nc(-c2ccc(F)cc2)cc1[C@H]1CN2CC[C@H]1C[C@@H]2CNS(C)(=O)=O` [CBK289109]: 98.8%; `CC(C)NC(=O)NC[C@H]1C[C@@H]2CCN1C[C@@H]2c1cc(-c2ccc(F)cc2)nn1C` [CBK289111]: 88.5%.
With `O=C(NC[C@H]1C[C@@H]2CC[N@]1C[C@@H]2CN1CCN(c2ncccn2)CC1)c1ccco1` [CBK289115], the viability at 28.5 h, 10 µM was determined as 88.1%.
Next, `CC(C)NC(=O)NC[C@H]1C[C@@H]2CC[N@]1C[C@@H]2CN1CCN(c2ncccn2)CC1` [CBK289116]: 89.7%.
Next, `O=C(NC[C@H]1C[C@@H]2CC[N@]1C[C@@H]2CN1CCN(c2ncccn2)CC1)Nc1ccsc1` [CBK289117]: 90.3%; `CCC(CC)c1cc([C@H]2CN3CC[C@H]2C[C@@H]3CO)nc(-c2ccncc2)n1` [CBK289118]: 100%.
Next, `Cc1nc(C2CCCC2)cc([C@H]2CN3CC[C@H]2C[C@@H]3CNS(C)(=O)=O)n1` [CBK289121]: 87.6%; `CCNC(=O)NC[C@H]1C[C@@H]2CCN1C[C@@H]2c1cc(C2CCCC2)nc(C)n1` [CBK289122]: 81.6%.
In the case of `Cc1nc(-c2ccccc2)cc([C@H]2CN3CC[C@H]2C[C@@H]3CNS(C)(=O)=O)n1` [CBK289124], the viability at 28.5 h, 10 µM worked out at 114%.
As for `Cc1nc(-c2ccccc2)cc([C@H]2CN3CC[C@H]2C[C@@H]3CNC(=O)NC(C)C)n1` [CBK289126], the viability at 28.5 h, 10 µM stood at 89.9%.
With `Cc1nc(-c2cccs2)cc([C@H]2CN3CC[C@H]2C[C@@H]3CNC(=O)c2ccco2)n1` [CBK289127] the figure was 86.9%; with `CC(=O)NC[C@H]1C[C@@H]2CCN1C[C@@H]2c1cc(-c2ccco2)nc(C)n1` [CBK289128], 102%; with `CC(=O)N1CCC(NC[C@H]2C[C@@H]3CCN2C[C@@H]3c2cc(C3CCCC3)nc(C)n2)CC1` [CBK289129], 84.3%.
Next, `CC[C@H]1CN(C(C)=O)CC[C@H]1CC(=O)Nc1nccs1` [CBK289130]: 97.8%.
Next, `CC[C@H]1CN(C(C)=O)CC[C@H]1CC(=O)NCc1ccc2c(c1)OCO2` [CBK289131]: 89.2%; `CC[C@H]1CN(C(=O)C2CC2)CC[C@H]1CC(=O)NCc1ccc2c(c1)OCO2` [CBK289133]: 91.9%; `CC[C@H]1CN(C(=O)C(C)(C)C)CC[C@H]1CC(=O)NCc1cccnc1` [CBK289135]: 97.8%.
Turning to `C=CCNC(=O)C[C@@H]1CCN(C(=O)c2ccnc(Cl)c2)C[C@@H]1CC` [CBK289136], the viability at 28.5 h, 10 µM amounted to 94.3%.
Next, `CC[C@H]1CN(C(=O)c2ccnc(Cl)c2)CC[C@H]1CC(=O)NCc1ccc2c(c1)OCO2` [CBK289137]: 110%.
With `CCCNC(=O)C[C@@H]1CCN(C(=O)c2ccnc(Cl)c2)C[C@@H]1CC` [CBK289138] the figure was 99.3%; with `CC[C@H]1CN(S(=O)(=O)c2ccccc2)CC[C@H]1CC(=O)N(C)CC#N` [CBK289140], 108%; with `CC[C@H]1CN(S(C)(=O)=O)CC[C@H]1CC(=O)NCc1ccco1` [CBK289141], 89.2%.
For `C=CCNC(=O)C[C@@H]1CCN(C(=O)c2cccnc2)C[C@@H]1CC` [CBK289142], the viability at 28.5 h, 10 µM was 92.3%.
Next, `CC[C@H]1CN(C(=O)c2cccnc2)CC[C@H]1CC(=O)NCc1ccc(F)cc1` [CBK289143]: 88.6%.
Next, `COCc1cc(C[C@H]2CNCC[C@H]2CC(=O)N2CCc3ccccc3C2)no1` [CBK289144]: 88.4%.
Next, `CC(C)NC(=O)C[C@@H]1CCNC[C@@H]1Cc1cc(-c2ccccc2)on1` [CBK289147]: 83.7%.

For the origin of these results see PMC12040169 (PLOS Biology, 2025).
